# Laboratory results taken from ChEMBL document CHEMBL1201862, “PubChem BioAssay data set” (2004).
#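 Assay format: 96-well plates, 48-hour exposure. Here, GI50 denotes the concentration required for 50% inhibition of growth.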 Active and inactive are the calls of the source. Rule as the data show it: active = GI50 up to about 1.1 µM and inactive = higher.
# Legend:
# Experiment in all cases: inhibition of tumour cell growth, NCI panel, 48 h
# HOP-62 = test system: HOP-62
# K562 = test system: K562
# SR = test system: SR
# SF-268 = test system: SF-268
# CAKI-1 = test system: CAKI-1
# A549 = test system: A549
# SK-MEL-28 = test system: SK-MEL-28
# NCI-H522 = test system: NCI-H522
# SW-620 = test system: SW-620
# SNB-19 = test system: SNB-19
# SF-295 = test system: SF-295
# HCC 2998 = test system: HCC 2998
# HCT-15 = test system: HCT-15
# SN12C = test system: SN12C
# NCI-H460 = test system: NCI-H460
SMILES,GI50 (HOP-62),GI50 (K562),GI50 (SR),GI50 (SF-268),GI50 (CAKI-1),GI50 (A549),GI50 (SK-MEL-28),GI50 (NCI-H522),GI50 (SW-620),GI50 (SNB-19),GI50 (SF-295),GI50 (HCC 2998),GI50 (HCT-15) [µM],GI50 (SN12C),GI50 (NCI-H460)
O=C(O)/C(Cl)=C(\Cl)C(=O)NC1C2CC3CC(C2)CC1C3 (centres undefined),> 100 µM (inactive),> 100 µM (inactive),> 100 µM (inactive),> 100 µM (inactive),> 100 µM (inactive),> 100 µM (inactive),> 100 µM (inactive),> 100 µM (inactive),> 100 µM (inactive),> 100 µM (inactive),> 100 µM (inactive),> 100 µM (inactive),> 100,> 100 µM (inactive),–
COC(=O)C1=C(c2cc(OC)c(OC)c(OC)c2)OC(c2ccc3c(c2)OCO3)C1 (centres undefined),35.7 µM (inactive),9.48 µM (inactive),5.38 µM (inactive),56.5 µM (inactive),22.6 µM (inactive),34.5 µM (inactive),48 µM (inactive),–,18.1 µM (inactive),42.5 µM (inactive),18.5 µM (inactive),28.4 µM (inactive),19.1,20.3 µM (inactive),31.7 µM (inactive)
CC(CC(=O)N1C(=O)C(C)(C)[C@@H](O)[C@H]1CC(C)C(Cl)(Cl)Cl)C(Cl)(Cl)Cl (some centres undefined),> 100 µM (inactive),> 100 µM (inactive),–,> 100 µM (inactive),> 100 µM (inactive),> 100 µM (inactive),–,> 100 µM (inactive),> 100 µM (inactive),> 100 µM (inactive),> 100 µM (inactive),> 100 µM (inactive),> 100,> 100 µM (inactive),> 100 µM (inactive)
CCc1ccc(/C(C)=N/NC(N)=S)cc1,> 100 µM (inactive),57.3 µM (inactive),> 100 µM (inactive),> 100 µM (inactive),70 µM (inactive),81.1 µM (inactive),> 100 µM (inactive),–,–,> 100 µM (inactive),> 100 µM (inactive),> 100 µM (inactive),–,–,–
CC1(C)OB(O)OC1(C)C,> 100 µM (inactive),> 100 µM (inactive),–,> 100 µM (inactive),> 100 µM (inactive),> 100 µM (inactive),> 100 µM (inactive),> 100 µM (inactive),> 100 µM (inactive),> 100 µM (inactive),> 100 µM (inactive),> 100 µM (inactive),> 100,> 100 µM (inactive),> 100 µM (inactive)
CCc1cccc(C)c1N1C(=O)C(=O)C(c2nc3ccccc3o2)/C(=N/NC(=S)NN)C1=O (centres undefined),> 100 µM (inactive),> 100 µM (inactive),–,> 100 µM (inactive),> 100 µM (inactive),> 100 µM (inactive),> 100 µM (inactive),> 100 µM (inactive),> 100 µM (inactive),> 100 µM (inactive),> 100 µM (inactive),–,> 100,> 100 µM (inactive),> 100 µM (inactive)
CCOc1ccc(C2=NN(CC)C(=O)C(C3C(=O)N(c4ccccc4)N=C3C)C2)cc1 (centres undefined),> 100 µM (inactive),> 100 µM (inactive),–,> 100 µM (inactive),> 100 µM (inactive),> 100 µM (inactive),> 100 µM (inactive),> 100 µM (inactive),> 100 µM (inactive),> 100 µM (inactive),> 100 µM (inactive),> 100 µM (inactive),> 100,–,> 100 µM (inactive)
CC(C)(C)NC(=O)NC12CC3CC(CC(F)(C3)C1)C2,> 100 µM (inactive),> 100 µM (inactive),–,–,–,> 100 µM (inactive),> 100 µM (inactive),> 100 µM (inactive),> 100 µM (inactive),> 100 µM (inactive),–,> 100 µM (inactive),–,–,> 100 µM (inactive)
C[Si](C)(C)/C=C\CCO,–,> 100 µM (inactive),> 100 µM (inactive),> 100 µM (inactive),–,> 100 µM (inactive),> 100 µM (inactive),> 100 µM (inactive),> 100 µM (inactive),> 100 µM (inactive),> 100 µM (inactive),> 100 µM (inactive),> 100,> 100 µM (inactive),> 100 µM (inactive)
Nc1ncnc2c1ncn2CCOC(c1ccccc1)P(=O)(O)O (centres undefined),–,–,> 100 µM (inactive),> 100 µM (inactive),> 100 µM (inactive),> 100 µM (inactive),> 100 µM (inactive),> 100 µM (inactive),> 100 µM (inactive),> 100 µM (inactive),> 100 µM (inactive),> 100 µM (inactive),> 100,> 100 µM (inactive),> 100 µM (inactive)
CCCC(=O)OCC(O)CO (centres undefined),> 5000 µM (inactive),4880 µM (inactive),> 5000 µM (inactive),> 5000 µM (inactive),2040 µM (inactive),> 5000 µM (inactive),> 5000 µM (inactive),3740 µM (inactive),> 5000 µM (inactive),–,> 5000 µM (inactive),–,> 5000,> 5000 µM (inactive),4570 µM (inactive)
